Measured values taken from patent publication EP0795549A1, “Bis-aryloxy(amino)-triazinyl-oxy(amino)aryl derivatives, their preparation and their use as antiviral agents” (American Cyanamid Company, priority 1996, dated 1997).
Where two headings read alike, the source gives them in different places.

What was measured:
[1] = tested on: RSV (A2); assay: viral yield reduction (growth inhibition) assay, RSV; format: cell-based, Respiratory Syncitial Virus; conditions: for IC50 µG/mL IN GROWTH […]/ VERO: vero host cells
Method: (§1) The compounds were tested for biological activity using viral yield reduction assays. Host cells (indicated as HF for human foreskin fibroblasts and as vero, the commonly used African green monkey cell line, in Tables 1 and 1a) were plated at 4 x 10^4 cells/well in cell growth medium with 2% fetal bovine serum or 2% calf serum in 96-well plates (0.1 ml/well) and incubated overnight. The compounds were added to individual wells to give final concentrations ranging from 50 to 0.1 µg/ml in two-fold concentration steps. After 1 hour, virus was added, and the incubation was continued for 4 days with RSV or CMV and for 2 days with HSV. At the end of the experiment, the amount of virus growth was quantitated and the yield reduction at various concentrations of compound was calculated. This allows estimation of the concentration of compound giving 50% reduction in virus growth (IC50).

[2] = tested on: human foreskin fibroblasts (HF); assay: effect on cells: appearance of fixed, crystal violet-stained monolayer (HF); format: cell-based; parameters: key: N, no effect on the appearance of the alcohol-fixed and crystal violet-stained cell monolayer at the indicated compound concentration.; L, lightening of the intensity of staining (compared to controls) of the alcohol-fixed and crystal violet-stained cell monolayer at the indicated compound concentration but not at half that concentration
[3] = tested on: CMV (Ad169); assay: viral yield reduction (growth inhibition) assay, CMV; format: cell-based, Cytomegalovirus; conditions: for Antiviral IC50 µg/ml CMV /HF: Table 1a
Method: as §1

[4] = tested on: vero cells; assay: effect on cells: appearance of fixed, crystal violet-stained monolayer (vero); format: cell-based, African green monkey; parameters: key: N, no effect on the appearance of the alcohol-fixed and crystal violet-stained cell monolayer at the indicated compound concentration.; L, lightening of the intensity of staining (compared to controls) of the alcohol-fixed and crystal violet-stained cell monolayer at the indicated compound concentration but not at half that concentration; conditions: at 75 µg/ml
[5] = tested on: HSV1 (Patton); assay: viral yield reduction (growth inhibition) assay, HSV; format: cell-based, Herpes Simplex Virus; conditions: for Antiviral IC50 µg/ml HSV Vero: Table 1a, format not given
Method: as §1

[6] = tested on: CMV (Ad169); assay: viral plaque reduction assay, CMV; format: cell-based, Cytomegalovirus
[7] = tested on: RSV A2; format: in vivo, cotton rats
[8] = tested on: RSV; assay: viral plaque reduction assay, RSV; format: cell-based, Respiratory Syncitial Virus
[9] = tested on: HSV1 (Patton); assay: viral plaque reduction assay, HSV1; format: cell-based, Herpes Simplex Virus; conditions: for IC50µG/mL IN PLAQUE ASSAY HSV/ VER O: HSV1 (Patton), vero host cells
[10] = Table 1a, HF, yield reduction or plaque format not specified
[11] = EXPT 3, i.n. 30 mg/k d1,2,3, Lavage/CPE
[12] = EXPT 3, i.n. 30 mg/k d1,2,3, Lavage/Plaque
[13] = EXPT 3, i.n. 30 mg/k d1,2,3, Lung/Plaque
[14] = EXPT 3, i.n. d0 15 mg/k, d1 30 mg/k, Lavage/CPE
[15] = EXPT 3, i.n. d0 15 mg/k, d1 30 mg/k, Lavage/Plaque
[16] = EXPT 3, i.n. d0 15 mg/k, d1 30 mg/k, Lung/Plaque
[17] = EXPT 3, i.n. d0 15 mg/k, d1,2,3 30 mg/k, Lavage/CPE
[18] = EXPT 3, i.n. d0 15 mg/k, d1,2,3 30 mg/k, Lavage/Plaque
[19] = EXPT 3, i.n. d0 15 mg/k, d1,2,3 30 mg/k, Lung/Plaque
[20] = EXPT 3, i.p. 30 mg/k d1,2,3, Lavage/CPE
[21] = EXPT 3, i.p. 30 mg/k d1,2,3, Lavage/Plaque
[22] = EXPT 3, i.p. 30 mg/k d1,2,3, Lung/Plaque

## 4,4'-Bis-[[4,6-bis-[[3-[[bis-[3-(methylamino)-3-oxopropyl]amino]sulfonyl]phenyl]amino]-1,3,5-triazin-2-yl]amino] [1,1'-biphenyl]-2,2'-disulfonic acid, disodium salt [Example 34]
[1]; [10]
  Antiviral IC50 µg/ml RSV/ HF: 1.2 µg/mL
[2]; at 75 µg/ml
  Effect on cells @ µg/ml indicated HF: N@75
[3]; HF, format not given
  Antiviral IC50 µg/ml CMV /HF: >50 µg/mL
[4]
  Effect on cells @ µg/ml indicated Vero: L@75
[5]; HSV1 (Patton)
  Antiviral IC50 µg/ml HSV Vero: >50 µg/mL

## 4,4'-Bis[4,6-di[3-aminophenyl-N,N-bis(2-carbamoyl-ethyl)sulfonylimino]-1,3,5-triazin-2-ylamino]-biphenyl-2,2'-disulfonic acid, disodium salt [Example 4]
[1]; HF host cells
  IC50 µG/mL IN GROWTH […]/ HF: 0.1 µg/mL
[1]
  IC50 µG/mL IN GROWTH […]/ VERO: 0.1 µg/mL
[6]; CMV (Ad169), HF host cells
  IC50µG/mL IN PLAQUE ASSAY CMV/ HF: > 30 µg/mL
[6]; HCMV Ad169, HF, Pre
  IC50 (µG/ml) viral plaque formation: >30 µg/mL
[7]; [11]
  Fold red. log10: 2.51 log10
  Mean titer log10/g lung: 1.67 log10/g lung
[7]; [12]
  Fold red. log10: 1.2 log10
  Mean titer log10/g lung: 3.09 log10/g lung
[7]; [13]
  Fold red. log10: 1.18 log10
  Mean titer log10/g lung: 3.37 log10/g lung
[7]; [14]
  Fold red. log10: 2.52 log10
  Mean titer log10/g lung: 1.66 log10/g lung
[7]; [15]
  Fold red. log10: 2.03 log10
  Mean titer log10/g lung: 2.26 log10/g lung
[7]; [16]
  Fold red. log10: 2.23 log10
  Mean titer log10/g lung: 2.32 log10/g lung
[7]; [17]
  Fold red. log10: 2.13 log10
  Mean titer log10/g lung: 2.05 log10/g lung
[7]; [18]
  Fold red. log10: 2.04 log10
  Mean titer log10/g lung: 2.25 log10/g lung
[7]; [19]
  Fold red. log10: 2.3 log10
  Mean titer log10/g lung: 2.25 log10/g lung
[7]; [20]
  Fold red. log10: 0 log10
  Mean titer log10/g lung: 4.18 log10/g lung
[7]; [21]
  Fold red. log10: 0.09 log10
  Mean titer log10/g lung: 4.1 log10/g lung
[7]; [22]
  Fold red. log10: 0.26 log10
  Mean titer log10/g lung: 3.92 log10/g lung
[7]; cotton rats, summary of Table 3
  inhibition of RSV in vivo (summary in words): inhibit RSV in vivo
[7]; rat, in vivo
  Fold red. log10: 1.63 log10
  Mean titer log10/g lung: 2.05 log10/g lung
[3]; HF host cells
  IC50 µG/mL IN GROWTH […]/ HF: 35 µg/mL
[5]; HSV1 (Patton), HF host cells
  IC50 µG/mL IN GROWTH […]/ HF: 20 µg/mL
[5]; HSV1 (Patton), vero host cells
  IC50 µG/mL IN GROWTH […]/ VERO: 35 µg/mL
[8]; RSV 2B, VERO, Post 2 hours
  IC50 (µG/ml) viral plaque formation: 0.08 µg/mL
[8]; RSV 3A, VERO, Post 2 hours
  IC50 (µG/ml) viral plaque formation: 0.15 µg/mL
[8]; RSV 9320, VERO, Post 2 hours
  IC50 (µG/ml) viral plaque formation: 0.18 µg/mL
[8]; RSV 18736, VERO, Post 2 hours
  IC50 (µG/ml) viral plaque formation: 0.06 µg/mL
[8]; RSV (A2), vero host cells
  IC50µG/mL IN PLAQUE ASSAY RSV/ VERO: 0.1 µg/mL
[8]; RSV A2, VERO, Post 2 hours
  IC50 (µG/ml) viral plaque formation: 0.28 µg/mL
[8]; RSV A2, VERO, Pre (pretreatment)
  IC50 (µG/ml) viral plaque formation: 0.1 µg/mL
[8]; RSV LONG, VERO, Post 2 hours
  IC50 (µG/ml) viral plaque formation: 0.21 µg/mL
[8]; RSV RSS2, VERO, Post 2 hours
  IC50 (µG/ml) viral plaque formation: 0.20 µg/mL
[8]; all RSV strains tested
  active against all RSV strains tested (plaque assays): 0.1 to 0.7 µg/mL
[9]
  IC50µG/mL IN PLAQUE ASSAY HSV/ VER O: 35 µg/mL
[9]; HSV1 Patton, VERO, Pre
  IC50 (µG/ml) viral plaque formation: 35 µg/mL

## 4,4'Bis-(4,6-bis-{3-[bis-(2-hydroxy-propyl)-sulfamoyl]-phenylamino}-[1,3,5]triazin-2-ylamino)biphenyl-2,2'-disulfonic acid, disodium salt [Example 40]
[1]; [10]
  Antiviral IC50 µg/ml RSV/ HF: 0.2 µg/mL
[2]; at 75 µg/ml
  Effect on cells @ µg/ml indicated HF: N@75
[3]; HF, format not given
  Antiviral IC50 µg/ml CMV /HF: 4 µg/mL
[4]
  Effect on cells @ µg/ml indicated Vero: N@75
[5]; HSV1 (Patton)
  Antiviral IC50 µg/ml HSV Vero: 20 µg/mL

## 4,4'Bis[4,6-di[3-aminophenyl-N,N-bis(2-hydroxyethyl)sulfonylimino]-1,3,5-triazin-2-ylamino]-stilbene-2,2'-disulfonic acid, disodium salt [Example 5]
[1]
  IC50 µG/mL IN GROWTH […]/ VERO: 0.4 µg/mL
[9]
  IC50µG/mL IN PLAQUE ASSAY HSV/ VER O: 8 µg/mL

## O=C([O-])c1cc(Nc2nc(Nc3cccc(S(=O)(=O)N(CCO)CCO)c3)nc(Nc3cccc(S(=O)(=O)N(CCO)CCO)c3)n2)ccc1-c1ccc(Nc2nc(Nc3cccc(S(=O)(=O)N(CCO)CCO)c3)nc(Nc3cccc(S(=O)(=O)N(CCO)CCO)c3)n2)cc1C(=O)[O-].[Na+].[Na+] [Example 57, 4,4'-Bis-(4,6-bis-{3-[bis-(2-hydroxyethyl)-sulfamoyl]-phenylamino}-[1,3,5]-triazin-2-ylamino)biphenyl-2,2'dicarboxylic acid, disodium salt]
[1]; human respiratory syncytial virus, Table 1a, HF, yield reduction or plaque format not specified, read-out: Antiviral IC50 µg/ml RSV/ HF
  IC50: 1.5 µg/mL
[3]; Human betaherpesvirus 5, Table 1a, HF, format not given, read-out: Antiviral IC50 µg/ml CMV /HF
  IC50: 4 µg/mL
[4]
  Effect on cells @ µg/ml indicated Vero: N@75
[5]; Human alphaherpesvirus 1, Vero, read-out: Antiviral IC50 µg/ml HSV Vero
  IC50: 30 µg/mL

## (E)-2,2'-(1,2-Ethenediyl)bis[5-[[4,6-bis[[3-[[3,5-bis(aminocarbonyl)-1-piperedinyl]sulfonyl]phenyl]amino]-1,3,5-triazin-2-yl]benzenesulfonic acid], disodium salt [Example 52]
[1]; [10]
  Antiviral IC50 µg/ml RSV/ HF: 1.5 µg/mL
[1]; Table 1a, vero, format not given
  Antiviral IC50 µg/ml RSV/ Vero: 1.5 µg/mL
[2]; at 37 µg/ml
  Effect on cells @ µg/ml indicated HF: L@37
